Measured values taken from ChEMBL document CHEMBL1201862, “PubChem BioAssay data set” (2004).
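Where inhibition never reached the appropriate level, the endpoint shown equals the highest concentration tested. Otherwise, values were interpolated linearly from a five-concentration, 48-hour dose response in 96-well plates. The concentration for 50% growth inhibition is given as GI50.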 The source made the active and inactive calls. Rule as the data show it: active = GI50 up to about 1.1 µM and inactive = higher.

Tests used:
Test in all cases: growth of human tumour cells (NCI), 48 h
OVCAR-8 = system: OVCAR-8
SNB-75 = system: SNB-75
MDA-MB-231 = system: MDA-MB-231
KM12 = system: KM12
PC-3 = system: PC-3
SF-295 = system: SF-295
SF-539 = system: SF-539
786-0 = system: 786-0
COLO 205 = system: COLO 205
NCI-H23 = system: NCI-H23
NCI-H522 = system: NCI-H522
HOP-62 = system: HOP-62
MOLT-4 = system: MOLT-4
M14 = system: M14
Hs-578T = system: Hs-578T
RPMI-8226 = system: RPMI-8226
SK-OV-3 = system: SK-OV-3
OVCAR-3 = system: OVCAR-3
CAKI-1 = system: CAKI-1
SNB-19 = system: SNB-19
TK-10 = system: TK-10
A549 = system: A549
MDA-N = system: MDA-N
A498 = system: A498
SF-268 = system: SF-268
T47D = system: T47D
SK-MEL-2 = system: SK-MEL-2
IGROV-1 = system: IGROV-1
RXF 393 = system: RXF 393
SK-MEL-28 = system: SK-MEL-28
Malme-3M = system: Malme-3M
NCI-H460 = system: NCI-H460
MCF7 = system: MCF7
HCT-15 = system: HCT-15
HCC 2998 = system: HCC 2998
BT-549 = system: BT-549
ACHN = system: ACHN
U-251 = system: U-251
NCI/ADR-RES = system: NCI/ADR-RES
HCT-116 = system: HCT-116
SN12C = system: SN12C
OVCAR-4 = system: OVCAR-4
UACC-257 = system: UACC-257
CCRF-CEM = system: CCRF-CEM
OVCAR-5 = system: OVCAR-5
HT-29 = system: HT-29
UACC-62 = system: UACC-62
K562 = system: K562
UO-31 = system: UO-31
HOP-92 = system: HOP-92
LOX IMVI = system: LOX IMVI
SR = system: SR
DU-145 = system: DU-145
SW-620 = system: SW-620
SK-MEL-5 = system: SK-MEL-5
MDA-MB-435 = system: MDA-MB-435
EKVX = system: EKVX
HL-60 = system: HL-60

SMILES: COC1=CC2(C=CC1=O)CCNC1=C2C(=O)c2nc[nH]c2C1=O (stereo not drawn)
- GI50 (OVCAR-8): > 100 µM (inactive)
- GI50 (SNB-75): > 100 µM (inactive)
- GI50 (MDA-MB-231): > 100 µM (inactive)
- GI50 (KM12): > 100 µM (inactive)
- GI50 (PC-3): > 100 µM (inactive)
- GI50 (SF-295): > 100 µM (inactive)
- GI50 (SF-539): > 100 µM (inactive)
- GI50 (786-0): > 100 µM (inactive)
- GI50 (COLO 205): > 100 µM (inactive)
- GI50 (NCI-H23): > 100 µM (inactive)
- GI50 (NCI-H522): 32.3 µM (inactive)
- GI50 (HOP-62): > 100 µM (inactive)
- GI50 (MOLT-4): > 100 µM (inactive)
- GI50 (M14): > 100 µM (inactive)
- GI50 (Hs-578T): > 100 µM (inactive)
- GI50 (RPMI-8226): > 100 µM (inactive)
- GI50 (SK-OV-3): > 100 µM (inactive)
- GI50 (OVCAR-3): 41.8 µM (inactive)
- GI50 (CAKI-1): > 100 µM (inactive)
- GI50 (SNB-19): > 100 µM (inactive)
- GI50 (TK-10): > 100 µM (inactive)
- GI50 (A549): > 100 µM (inactive)
- GI50 (MDA-N): > 100 µM (inactive)
- GI50 (A498): > 100 µM (inactive)
- GI50 (SF-268): > 100 µM (inactive)
- GI50 (T47D): > 100 µM (inactive)
- GI50 (SK-MEL-2): > 100 µM (inactive)
- GI50 (IGROV-1): > 100 µM (inactive)
- GI50 (RXF 393): > 100 µM (inactive)
- GI50 (SK-MEL-28): > 100 µM (inactive)
- GI50 (Malme-3M): > 100 µM (inactive)
- GI50 (NCI-H460): > 100 µM (inactive)
- GI50 (MCF7): > 100 µM (inactive)
- GI50 (HCT-15): > 100 µM
- GI50 (HCC 2998): > 100 µM (inactive)
- GI50 (BT-549): > 100 µM (inactive)
- GI50 (ACHN): > 100 µM (inactive)
- GI50 (U-251): > 100 µM (inactive)
- GI50 (NCI/ADR-RES): > 100 µM (inactive)
- GI50 (HCT-116): > 100 µM (inactive)
- GI50 (SN12C): > 100 µM (inactive)
- GI50 (OVCAR-4): > 100 µM (inactive)
- GI50 (UACC-257): > 100 µM (inactive)
- GI50 (CCRF-CEM): > 100 µM (inactive)
- GI50 (OVCAR-5): > 100 µM (inactive)
- GI50 (HT-29): > 100 µM (inactive)
- GI50 (UACC-62): > 100 µM (inactive)
- GI50 (K562): > 100 µM (inactive)
- GI50 (UO-31): > 100 µM (inactive)
- GI50 (HOP-92): > 100 µM (inactive)
- GI50 (LOX IMVI): > 100 µM (inactive)
- GI50 (SR): > 100 µM (inactive)
- GI50 (DU-145): > 100 µM (inactive)
- GI50 (SW-620): > 100 µM (inactive)
- GI50 (SK-MEL-5): > 100 µM (inactive)
- GI50 (MDA-MB-435): > 100 µM (inactive)
- GI50 (EKVX): > 100 µM (inactive)
- GI50 (HL-60): > 100 µM (inactive)
